Assay results reported in patent US11065304B2, “Peptide pharmaceuticals for insulin resistance” (MEDERIS DIABETES, LLC, priority 2012, dated 2021).

Key:
[1] = in water; cited from earlier work
glucagon R = target: T1, glucagon R (Homo sapiens, UniProt P47871); assay: DiscoveRx LeadHunter cellular assay, cAMP stimulation, glucagon receptor; format: cell-based
T1 construct: host or cells: CHO cells
Description: (§1) § means superagonist A further series of cellular assays were carried out using standard cellular assays (DiscoveRx, LeadHunter assays) using readout of cAMP stimulation or arrestin activation. Compounds were weighed precisely in an amount of approximately 1 mg and shipped to DiscoveRx for dilution and assay.

db/db mice = assay: In vivo assay in db/db mice (blood glucose, body weight, food consumption); details: for db/db mice - Mean Blood Glucose, 10 hr: 10 hr after first dose; for db/db mice - Mean Blood Glucose, 24 hr: 24 hr after first dose; for db/db mice - Mean Blood Glucose, 48 hr: 48 hr after first dose
Description: The 60 female db/db B6BKS (D) Leprdb/J (strain 000697) mice for this study were approximately 8 to 9 weeks old at arrival (Jackson Laboratory, Bar Harbor, Me.). […] One group of 8 female mice served as the vehicle control and received the vehicle, 0.2% BSA in saline, pH 7.4. One additional group of 8 female mice received the positive control article, liraglutide, at a dose level of 50 nmoles/kg. The test articles, vehicle, and positive control article were administered on Day 1, at approximately 0, 7, and 24 hours during the study via subcutaneous injection at a dose volume of 6 mL/kg.
Clinical observations were conducted at receipt, prior to randomization, and daily from Days 1 to 5. Body weights were measured and recorded at receipt, prior to randomization, and daily from Days 1 to 5. Food consumption was measured and recorded daily from Days 1 to 5. Blood samples for glucose analysis were collected pretest (Day −3) and at 0, 1, 2, 4, 8, 10, 24, 48, 72, and 96 hours following the first dose on Day 1. At study termination all animals were euthanized and the carcasses were discarded without further evaluation.

GLP-1 R = GLP-1 R (Homo sapiens, UniProt P43220); assay: DiscoveRx LeadHunter cellular assay, cAMP stimulation, GLP-1 receptor; format: cell-based
Description: as §1

T1 sequence (P47871 26-477): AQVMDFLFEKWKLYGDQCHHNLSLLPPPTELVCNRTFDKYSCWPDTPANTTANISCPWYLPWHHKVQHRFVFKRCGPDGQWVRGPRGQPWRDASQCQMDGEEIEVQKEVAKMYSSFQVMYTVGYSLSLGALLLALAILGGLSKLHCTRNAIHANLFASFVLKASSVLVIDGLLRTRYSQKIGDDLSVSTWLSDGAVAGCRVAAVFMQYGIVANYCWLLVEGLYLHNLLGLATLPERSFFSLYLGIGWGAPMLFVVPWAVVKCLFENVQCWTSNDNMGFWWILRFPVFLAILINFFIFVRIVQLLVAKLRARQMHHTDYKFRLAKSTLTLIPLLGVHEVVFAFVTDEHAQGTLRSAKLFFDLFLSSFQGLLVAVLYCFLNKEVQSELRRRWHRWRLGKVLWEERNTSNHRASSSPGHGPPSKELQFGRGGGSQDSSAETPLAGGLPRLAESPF
Chain of GLP-1 R (P43220 24-463): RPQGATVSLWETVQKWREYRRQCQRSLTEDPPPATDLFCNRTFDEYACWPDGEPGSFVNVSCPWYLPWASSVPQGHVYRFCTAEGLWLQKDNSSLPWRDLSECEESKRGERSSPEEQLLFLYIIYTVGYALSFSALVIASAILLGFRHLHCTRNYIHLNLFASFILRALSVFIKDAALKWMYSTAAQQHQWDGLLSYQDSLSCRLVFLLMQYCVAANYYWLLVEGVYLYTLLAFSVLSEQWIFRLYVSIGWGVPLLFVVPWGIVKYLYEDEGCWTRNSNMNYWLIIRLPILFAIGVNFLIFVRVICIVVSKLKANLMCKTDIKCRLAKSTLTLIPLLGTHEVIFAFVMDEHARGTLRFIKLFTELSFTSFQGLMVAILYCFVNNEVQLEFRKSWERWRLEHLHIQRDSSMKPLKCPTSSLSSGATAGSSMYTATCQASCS

CCCCCCCCCCCCCCO[C@@H]1O[C@H](CO)[C@@H](O[C@@H]2O[C@@H](CO)[C@H](O)[C@@H](O)[C@@H]2O)[C@H](O)[C@H]1O (stereo in doubt) [Tetradecyl maltoside]
CMC (critical micelle concentration) [1]: 0.01 mM

CCCCCCCCCCCCCO[C@@H]1O[C@H](CO)[C@@H](OC2OC(CO)C(O)C(O)C2O)[C@H](O)[C@H]1O (stereo in doubt) [Tridecyl maltoside]
CMC (critical micelle concentration) [1]: 0.03 mM

CCCCCCCCCCO[C@@H]1O[C@H](CO)[C@@H](O[C@H]2O[C@H](CO)[C@@H](O)[C@H](O)[C@H]2O)[C@H](O)[C@H]1O [Decyl maltoside]
CMC (critical micelle concentration) [1]: 1.8 mM

CCCCCCCCCCCCO[C@@H]1O[C@H](CO)[C@@H](O[C@H]2O[C@H](CO)[C@@H](O)[C@H](O)[C@H]2O)[C@H](O)[C@H]1O [Dodecyl-β-D-maltoside]
CMC (critical micelle concentration) [1]: 0.17 mM

CCCCCCCCO[C@@H]1O[C@H](C(=O)NCCCC[C@H](NC(=O)[C@@H](NC(=O)[C@H](Cc2ccccc2)NC(=O)[C@H](CCC(=O)O)NC(=O)[C@@H]2CCCCNC(=O)CC[C@H](NC(=O)[C@H](CC(=O)O)NC(=O)[C@H](CC(C)C)NC(=O)[C@H](Cc3ccc(O)cc3)NC(=O)[C@H](CCCCN)NC(=O)[C@H](CO)NC(=O)[C@H](Cc3ccc(O)cc3)NC(=O)[C@H](CC(=O)O)NC(=O)[C@H](CO)NC(=O)[C@@H](NC(=O)[C@H](Cc3ccccc3)NC(=O)[C@@H](NC(=O)CNC(=O)[C@H](CCC(N)=O)NC(=O)C(C)(C)NC(=O)[C@@H](N)Cc3c[nH]cn3)[C@@H](C)O)[C@@H](C)O)C(=O)N[C@@H](CCC(N)=O)C(=O)N[C@@H](C)C(=O)N[C@@H](C)C(=O)N2)[C@@H](C)CC)C(=O)N[C@@H](Cc2c[nH]c3ccccc23)C(=O)N[C@@H](CC(C)C)C(=O)N[C@@H](CC(C)C)C(=O)N[C@@H](CCC(N)=O)C(=O)N[C@H](C(N)=O)[C@@H](C)O)[C@@H](O)[C@H](O)[C@H]1O [EU-A992, His1-Aib2-Gln3-Gly4-Thr5-Phe6-Thr7-Ser8-Asp9-Tyr10-Ser11-Lys12-Tyr13-Leu14-Asp15-Glu*16-Gln17 Ala18-Ala19-Lys*20-Glu21-Phe22-Ile23-Lys(N-omega(1-octylbeta-D-glucuronyl))24-Trp25-Leu26-Leu27-Gln28-Thr29-NH2]
EC50 (glucagon R): 19 pM | db/db mice - Mean Blood Glucose, 0 hr (db/db mice; 250 nmole/kg s.c.): 405 mg/dL | db/db mice - Mean Blood Glucose, 10 hr (db/db mice; 250 nmole/kg s.c.): 104 mg/dL | db/db mice - Mean Blood Glucose, 24 hr (db/db mice; 250 nmole/kg s.c.): 112 mg/dL | db/db mice - Mean Blood Glucose, 48 hr (db/db mice; 250 nmole/kg s.c.): 130 mg/dL

CCCCCCCCCCCCO[C@@H]1O[C@H](CO[C@H]2O[C@H](C(=O)NCCCC[C@H](NC(=O)[C@@H](NC(=O)[C@H](Cc3ccccc3)NC(=O)[C@H](CCC(=O)O)NC(=O)[C@@H]3CCCCNC(=O)CC[C@H](NC(=O)[C@H](CC(=O)O)NC(=O)[C@H](CC(C)C)NC(=O)[C@H](Cc4ccc(O)cc4)NC(=O)[C@H](CCCCN)NC(=O)[C@H](CO)NC(=O)[C@H](Cc4ccc(O)cc4)NC(=O)[C@H](CC(=O)O)NC(=O)[C@H](CO)NC(=O)[C@@H](NC(=O)[C@H](Cc4ccccc4)NC(=O)[C@@H](NC(=O)CNC(=O)[C@H](CCC(N)=O)NC(=O)C(C)(C)NC(=O)[C@@H](N)Cc4c[nH]cn4)[C@@H](C)O)[C@@H](C)O)C(=O)N[C@@H](CCC(N)=O)C(=O)N[C@@H](C)C(=O)N[C@@H](C)C(=O)N3)[C@@H](C)CC)C(=O)N[C@@H](Cc3c[nH]c4ccccc34)C(=O)N[C@@H](CC(C)C)C(=O)N[C@@H](CC(C)C)C(=O)N[C@@H](CCC(N)=O)C(=O)N[C@H](C(N)=O)[C@@H](C)O)[C@H](O)[C@H](O)[C@H]2O)[C@@H](O)[C@H](O)[C@H]1O [EU-A1023, His1-Aib2-Gln3-Gly4-Thr5-Phe6-Thr7-Ser8-Asp9-Tyr10-Ser11-Lys12-Tyr13-Leu14-Asp15-Glu*16-Gln17 Ala18-Ala19-Lys*20-Glu21-Phe22-Ile23-Lys(N-omega(1-dodecylbeta-D-melibiouronyl))24-Trp25-Leu26-Leu27-Gln28-Thr29-NH2]
db/db mice - Mean Blood Glucose, 0 hr (db/db mice; 50 nmole/kg s.c.): 507 mg/dL | db/db mice - Mean Blood Glucose, 10 hr (db/db mice; 50 nmole/kg s.c.): 310 mg/dL | db/db mice - Mean Blood Glucose, 24 hr (db/db mice; 50 nmole/kg s.c.): 355 mg/dL | db/db mice - Mean Blood Glucose, 48 hr (db/db mice; 50 nmole/kg s.c.): 375 mg/dL | db/db mice - Mean Blood Glucose, 0 hr (db/db mice; 250 nmole/kg s.c.): 508 mg/dL | db/db mice - Mean Blood Glucose, 10 hr (db/db mice; 250 nmole/kg s.c.): 264 mg/dL | db/db mice - Mean Blood Glucose, 24 hr (db/db mice; 250 nmole/kg s.c.): 194 mg/dL | db/db mice - Mean Blood Glucose, 48 hr (db/db mice; 250 nmole/kg s.c.): 375 mg/dL

CCCCCCCCCCO[C@@H]1O[C@H](C(=O)NCCCC[C@H](NC(=O)[C@@H](NC(=O)[C@H](Cc2ccccc2)NC(=O)[C@H](CCC(=O)O)NC(=O)[C@@H]2CCCCNC(=O)CC[C@H](NC(=O)[C@H](CC(=O)O)NC(=O)[C@H](CC(C)C)NC(=O)[C@H](Cc3ccc(O)cc3)NC(=O)[C@H](CCCCN)NC(=O)[C@H](CO)NC(=O)[C@H](Cc3ccc(O)cc3)NC(=O)[C@H](CC(=O)O)NC(=O)[C@H](CO)NC(=O)[C@@H](NC(=O)[C@H](Cc3ccccc3)NC(=O)[C@@H](NC(=O)CNC(=O)[C@H](CCC(N)=O)NC(=O)C(C)(C)NC(=O)[C@@H](N)Cc3c[nH]cn3)[C@@H](C)O)[C@@H](C)O)C(=O)N[C@@H](CCC(N)=O)C(=O)N[C@@H](C)C(=O)N[C@@H](C)C(=O)N2)[C@@H](C)CC)C(=O)N[C@@H](Cc2c[nH]c3ccccc23)C(=O)N[C@@H](CC(C)C)C(=O)N[C@@H](CC(C)C)C(=O)N[C@@H](CCC(N)=O)C(=O)N[C@H](C(N)=O)[C@@H](C)O)[C@@H](O)[C@H](O)[C@H]1O [EU-A1167, His1-Aib2-Gln3-Gly4-Thr5-Phe6-Thr7-Ser8-Asp9-Tyr10-Ser11-Lys12-Tyr13-Leu14-Asp15-Glu*16-Gln17 Ala18-Ala19-Lys*20-Glu21-Phe22-Ile23-Lys(N-omega(1-decylbeta-D-glucuronyl))24-Trp25-Leu26-Leu27-Gln28-Thr29-NH2]
EC50 (GLP-1 R): 13 pM | EC50 (glucagon R): 19 pM | db/db mice - Mean Blood Glucose, 0 hr (db/db mice; 250 nmole/kg s.c.): 379 mg/dL | db/db mice - Mean Blood Glucose, 10 hr (db/db mice; 250 nmole/kg s.c.): 171 mg/dL | db/db mice - Mean Blood Glucose, 24 hr (db/db mice; 250 nmole/kg s.c.): 117 mg/dL | db/db mice - Mean Blood Glucose, 48 hr (db/db mice; 250 nmole/kg s.c.): 113 mg/dL

CCCCCCCCCCCO[C@@H]1O[C@H](C(=O)NCCCC[C@H](NC(=O)[C@@H](NC(=O)[C@H](Cc2ccccc2)NC(=O)[C@H](CCC(=O)O)NC(=O)[C@@H]2CCCCNC(=O)CC[C@H](NC(=O)[C@H](CC(=O)O)NC(=O)[C@H](CC(C)C)NC(=O)[C@H](Cc3ccc(O)cc3)NC(=O)[C@H](CCCCN)NC(=O)[C@H](CO)NC(=O)[C@H](Cc3ccc(O)cc3)NC(=O)[C@H](CC(=O)O)NC(=O)[C@H](CO)NC(=O)[C@@H](NC(=O)[C@H](Cc3ccccc3)NC(=O)[C@@H](NC(=O)CNC(=O)[C@H](CCC(N)=O)NC(=O)C(C)(C)NC(=O)[C@@H](N)Cc3c[nH]cn3)[C@@H](C)O)[C@@H](C)O)C(=O)N[C@@H](CCC(N)=O)C(=O)N[C@@H](C)C(=O)N[C@@H](C)C(=O)N2)[C@@H](C)CC)C(=O)N[C@@H](Cc2c[nH]c3ccccc23)C(=O)N[C@@H](CC(C)C)C(=O)N[C@@H](CC(C)C)C(=O)N[C@@H](CCC(N)=O)C(=O)N[C@H](C(N)=O)[C@@H](C)O)[C@@H](O)[C@H](O)[C@H]1O [EU-A1168, His1-Aib2-Gln3-Gly4-Thr5-Phe6-Thr7-Ser8-Asp9-Tyr10-Ser11-Lys12-Tyr13-Leu14-Asp15-Glu*16-Gln17 Ala18-Ala19-Lys*20-Glu21-Phe22-Ile23-Lys(N-omega(1-undecylbeta-D-glucuronyl))24-Trp25-Leu26-Leu27-Gln28-Thr29-NH2]
EC50 (GLP-1 R): 70 pM | EC50 (glucagon R): 140 pM | db/db mice - Mean Blood Glucose, 0 hr (db/db mice; 250 nmole/kg s.c.): 380 mg/dL | db/db mice - Mean Blood Glucose, 10 hr (db/db mice; 250 nmole/kg s.c.): 133 mg/dL | db/db mice - Mean Blood Glucose, 24 hr (db/db mice; 250 nmole/kg s.c.): 169 mg/dL | db/db mice - Mean Blood Glucose, 48 hr (db/db mice; 250 nmole/kg s.c.): 164 mg/dL

CCCCCCCCO[C@@H]1O[C@H](CO)[C@@H](O[C@H]2O[C@H](CO)[C@@H](O)[C@H](O)[C@H]2O)[C@H](O)[C@H]1O [Octyl maltoside]
CMC (critical micelle concentration) [1]: 19.5 mM

Sucrose dodecanoate
CMC (critical micelle concentration) [1]: 0.3 mM
